In ChEMBL document CHEMBL3390846, “Synthesis and biological activity of new pyridone diaryl ether non-nucleoside inhibitors of HIV-1 reverse transcriptase” (Medchemcomm, 2010):

Tests used:
[1] = biological target: Human immunodeficiency virus type 1 reverse transcriptase (Human immunodeficiency virus 1, UniProt Q72547); experiment: Inhibition of polymerase activity of wild type HIV-1 LAI reverse transcriptase
[2] = biological target: Human immunodeficiency virus type 1 reverse transcriptase (Human immunodeficiency virus 1, UniProt Q72547, K103N); experiment: Inhibition of polymerase activity of NNRTI-resistant HIV-1 LAI reverse transcriptase K103N mutant
[3] = biological target: Human immunodeficiency virus type 1 reverse transcriptase (Human immunodeficiency virus 1, UniProt Q72547, Y181C); experiment: Inhibition of polymerase activity of NNRTI-resistant HIV-1 LAI reverse transcriptase Y181C mutant
[4] = test system: Human immunodeficiency virus 1; experiment: Antiviral activity against NNRTI-resistant HIV-1 LAI harboring reverse transcriptase K103N mutant infected in human MT4 cells assessed as inhibition of viral replication after 5 days by MTT assay; assay type: functional, organism-based; conditions: Human immunodeficiency virus 1, LAI, MT4, 120 h
[5] = test system: Human immunodeficiency virus 1; experiment: Antiviral activity against NNRTI-resistant HIV-1 LAI harboring reverse transcriptase Y181C mutant infected in human MT4 cells assessed as inhibition of viral replication after 5 days by MTT assay; assay type: functional, organism-based; conditions: Human immunodeficiency virus 1, LAI, MT4, 120 h
[6] = test system: Human immunodeficiency virus 1; experiment: Antiviral activity against wild type HIV-1 LAI infected in human MT4 cells assessed as inhibition of viral replication after 5 days by MTT assay; assay type: functional, organism-based; conditions: Human immunodeficiency virus 1, LAI, MT4, 120 h
[7] = test system: Human immunodeficiency virus 1; experiment: Antiviral activity against wild type HIV-1 LAI infected in human MT4 cells assessed as inhibition of viral replication after 5 days by MTT assay in presence of 40% human serum; assay type: functional, organism-based; conditions: Human immunodeficiency virus 1, LAI, MT4, 120 h
[8] = test system: Human immunodeficiency virus 1; experiment: Antiviral activity against wild type HIV-1 LAI infected in human MT4 cells assessed as protection against virus-induced cell death after 5 days by MTT assay; assay type: functional, organism-based; conditions: Human immunodeficiency virus 1, LAI, MT4, 120 h
[9] = test system: Human immunodeficiency virus 1; experiment: Potency index, ratio of efavirenz IC50 to compound IC50 for wild type HIV-1 LAI in presence of 40% human serum; assay type: functional

| SMILES | IC50 [1] [nM] | IC50 [2] [nM] | IC50 [3] [nM] | IC50 [4] [nM] | IC50 [5] [nM] | IC50 [6] [nM] | IC50 [7] [nM] | IC50 [8] [nM] | Ratio IC50 [9] |
| --- | --- | --- | --- | --- | --- | --- | --- | --- | --- |
| N#Cc1cc(Cl)cc(Oc2cc(CCc3cccc(Cl)c3)[nH]c(=O)c2Cl)c1 | 12 | 6 | 7 | – | – | – | – | – | – |
| O=C1Nc2ccc(Cl)cc2[C@@](C#CC2CC2)(C(F)(F)F)O1 [EFAVIRENZ] | – | – | – | 65 | 3 | – | – | – | – |
| N#Cc1cc(Cl)cc(Oc2c(F)c(CCc3ccccc3)[nH]c(=O)c2Cl)c1 | 7 | – | – | – | – | – | – | – | – |
| Cc1[nH]c(=O)c(Cl)c(Oc2cc(Cl)cc(C#N)c2)c1CCOc1ccccc1 | 6 | 5 | 6 | 24 | 11 | 4 | 13 | – | – |
| N#Cc1cc(Cl)cc(Oc2cc(CCc3ccncc3)[nH]c(=O)c2Cl)c1 | 19 | 14 | 21 | – | – | – | – | – | – |
| CN(C)c1c(Oc2cc(Cl)cc(C#N)c2)cc(CC(=O)N2CCc3ccccc3C2)[nH]c1=O | 220 | – | – | – | – | – | – | 35 | – |
| N#Cc1cc(Cl)cc(Oc2cc(CCc3ccccc3)[nH]c(=O)c2Cl)c1 | 8 | – | – | – | – | – | – | – | – |
| N#Cc1cc(Cl)cc(Oc2c(CCOc3ccncc3)c[nH]c(=O)c2Br)c1 | 10 | 14 | 8 | – | – | – | – | – | – |
| N#Cc1cc(Cl)cc(Oc2c(F)c(CC(=O)N3CCc4ccccc4C3)[nH]c(=O)c2Br)c1 | 12 | – | – | – | – | – | – | 50 | – |
| Cc1[nH]c(=O)c(Cl)c(Oc2cc(Cl)cc(C#N)c2)c1CCCc1ccncc1 | 4 | 2 | 3 | – | 6 | 2 | 5 | – | 3 |
| N#Cc1cc(Cl)cc(Oc2c(CCOc3cccnc3)c[nH]c(=O)c2Br)c1 | 11 | 16 | 8 | – | – | – | – | – | – |
| Cc1[nH]c(=O)c(Br)c(Oc2cc(Cl)cc(C#N)c2)c1Cc1ccccc1 | 10 | 7 | 8 | 16 | 29 | 6 | 32 | – | – |
| N#Cc1cc(Cl)cc(Oc2c(COCc3ccncc3)c[nH]c(=O)c2Br)c1 | 21 | 13 | 11 | 13 | 19 | 7 | 10 | – | – |
| N#Cc1cc(Cl)cc(Oc2cc(CCc3nc4ccccc4o3)[nH]c(=O)c2Cl)c1 | 6 | 16 | 4 | – | – | – | – | – | – |
| N#Cc1cc(Cl)cc(Oc2cc(CC(=O)N3CCc4ccccc4C3)[nH]c(=O)c2Cl)c1 | 30 | – | – | – | – | – | – | 35 | – |
| N#Cc1cc(Cl)cc(Oc2cc(CCc3ccccn3)[nH]c(=O)c2Cl)c1 | 21 | 78 | 33 | – | – | – | – | – | – |
| N#Cc1cc(Cl)cc(Oc2c(F)c(CCc3ccncc3)[nH]c(=O)c2Br)c1 | 2 | 1 | 1 | – | 11 | 5 | 23 | – | – |
| N#Cc1cc(Cl)cc(Oc2cc(CCc3cccnc3)[nH]c(=O)c2Cl)c1 | 22 | 16 | 22 | – | – | – | – | – | – |
| N#Cc1cc(Cl)cc(Oc2c(F)c(CCc3cccc(Cl)c3)[nH]c(=O)c2Br)c1 | 17 | 8 | 8 | – | – | – | – | – | – |
| N#Cc1cc(Cl)cc(Oc2c(Cc3ccccc3)c[nH]c(=O)c2Br)c1 | 34 | 71 | 41 | – | – | – | – | – | – |
